In ChEMBL document CHEMBL5046216, “Disrupting Tryptophan in the Central Hydrophobic Region Selectively Mitigates Immunomodulatory Activities of the Innate Defence Regulator Peptide IDR-1002” (J Med Chem, 2021):

Assays:
HBEC3-KT = assay: Cytotoxicity against human HBEC3-KT incubated for 24 hrs by LDH assay; type: functional; further: test concentration or dose not given here
[1] = Retention time of the compound by HPLC analysis; type: physicochemical

| Substance | Activity (HBEC3-KT) [%] | Retention_time [1] [min] |
| --- | --- | --- |
| H-VLRWLIVWRIRK-OH | 50 | 17.4 |
| H-VQRWLIVIRIRK-OH | 50 | 14.48 |
| H-VQRWLIVWRIWK-OH | 50 | 18.47 |
| H-VQRWLIVWVIRK-OH | 50 | 18.05 |
